Source: patent US20080090788A1, “Chemical Compounds” (priority 2005, published 2008)

Experiments:
TIMP1 promoter = TIMP1 promoter luciferase activity in transfected activated HSC; assay type: cell-based; conditions: SFZ 1 mM, 3a 0.150 mM, 3e 0.127 mM, 3f 0.089 mM, 24 hours, rat HSC
Protocol: For HSC transfections, activated HSC were transfected by the non-liposomal Effectene protocol (Qiagen, UK) using 1 μg reporter plasmid DNA and 10 ng of control Renilla plasmid pRLTK (Promega, Southampton, UK) according to the manufacturer's instructions. After 24 hours, HSC were treated with test compounds for a further 24 hours. Luciferase assays were performed using a dual luciferase kit (Promega) according to the manufacturer's instructions. Firefly luciferase activities were normalised for differences in transfection efficiency by measurement of the activity of the co-transfected pRLTK. The pIκBα wt-Luc plasmid contains nucleotides −332 to +35 of the human IkB-α promoter cloned upstream of luciferase gene (Oakley F, et al, J Biol Chem 2003; 278: 24359-70). The pTIMP1-Luc plasmid contains the 162 bp human TIMP1 minimal promoter cloned upstream of luciferase gene (Bertrand-Philippe M, et al. J Biol Chem 2004; 279: 24530-9). The pAP1-Luc plasmid (Stratagene, UK) contains 7 copies of a consensus AP-1 binding site upstream of the minimal promoter and the luciferase gene.
To extend these findings, further analyses were performed using the […] promoter which contains multiple NF-kB binding sites and is a well studied NF-kB target. […] Consistent with the presence of activated NF-kB in HSC, (Wright M C et al, Gastroenterology 2001; 121: 685-98.) the IkB-α promoter was activated in HSC (FIG. 2a). SFZ (1 mM) inhibited promoter activity by >60%. […] Therefore, the improved inhibitory activity of analogues 3a, 3e and 3f is specific for NF-kB mediated transcription and is not restricted to U937 cells or artificial promoter constructs.
Rat HSC were transfected with (A) IkB-α-Luc, (B) TIMP1-Luc or (C) pAP-1-Luc reporter constructs. After 24 hours, cells were treated with sulfasalazine (1 mM), 3a (0.150 mM), 3e (0.127 mM), 3f (0.089 mM), or treated with DMSO as a control. Luciferase activity was determined after another 24 hours. Data presented are mean luciferase activity (±SEM) relative to control cells (value set to 100), derived from two separate experiments, each performed in duplicate and using an independent preparation of HSC.

IkB-α = IkB-α phosphorylation and degradation by immunoblotting in LPS-stimulated U937 cells; assay type: cell-based, human; conditions: 30 minutes after LPS; for effect on IkB-α phosphorylation and degradation: 1 hour pretreatment
Protocol: Western blotting was performed as previously described (Brimmell M, Burns J S, Munson P, et al. High level expression of differentially localized BAG-1 isoforms in some oestrogen receptor-positive human breast cancers. Br J Cancer 1999; 81: 1042-51). IkB-α and phospho-Ser32 specific IkB-α antibodies were from Cell Signaling Technology (Hitchin, UK). The PARP antibody (C2-10 clone) was from R&D Systems (Abingdon, UK).
To determine the kinetics of modulation of IkB-α by LPS, U937 cells were treated with LPS for up to 120 minutes and total IkB-α and phosphorylated IkB-αanalysed by immunoblotting. There was a rapid accumulation of phosphorylated IkB-α, accompanied by IkB-α degradation (FIG. 3a). To confirm that the enhanced NF-kB inhibitory activity of compounds 3a, 3e and 3f was due to increased inhibition of IKK, we pretreated cells with these compounds and then stimulated them with LPS. IkB-α was analysed at 30 minutes after the addition of LPS because it was possible to monitor both phosphorylation and degradation at this time. […] Therefore, the improved NF-kB inhibitory activity of compounds 3a, 3e and 3f is associated with effective inhibition of IkB-α phosphorylation.
(A) U937-kBluc cells were treated with LPS for the indicated times and expression of total IkB-α and phosphorylated IkB-α determined by immunoblotting. (B) U937-kBluc cells were pretreated with the indicated concentrations of compounds or left untreated. After 1 hour, cells were stimulated with LPS. Control cells were cultured in the absence of LPS. Cells were harvested after 30 minutes and the expression of total IkB-α and phosphorylated IkB-α determined by immunoblotting. The signals were quantified by digital image analysis and the fold increase in IkB-α phosphorylation and percent expression of total IkB-α relative to control cells is shown.

CLL cells = assay: CLL apoptosis by PARP cleavage; assay type: cell-based, human; conditions: 6 hours; for PARP cleavage in CLL cells compared with SFZ: 0.5 mM, three patient samples
Protocol: CLL apoptosis was quantified by analysing PARP which is cleaved by effector caspases during apoptosis. CLL cells isolated from three individual patients were recovered from storage in liquid nitrogen and cultured at a density of 1.25×10^6 cells in 1 ml of growth medium (RPMI 1640, 10% (v/v) FCS and antibiotics). After 1 hour, […] were treated with compounds. Cells were harvested 6 hours after addition of compound, resuspended in 1×SDS-PAGE sample buffer and sonicated prior to immunoblot analysis for PARP expression as described below. PARP cleavage was quantified by determining the amount of cleaved PARP as a percentage of total PARP expression by digital image analysis.
The ability of SFZ and the analogues to induce CLL apoptosis was analysed. CLL cells from 3 individual patients were treated with SFZ for 6 hours and apoptosis was quantified by analysing PARP cleavage. […] The amount of apoptosis induced by SFZ and compounds 3a and 3f (at 0.5 mM) was compared.
(A) CLL cells from three different patients were cultured in the presence of SFZ or compounds 3a and 3f (all at 0.5 mM), or DMSO as a solvent control. After 6 hours, the degree of PARP cleavage was determined as a measure of apoptosis. […] Note that compound 3f was not tested in cells from patient 3. (B) HSC were cultured in the presence of SFZ (1 mM), compounds 3a (0.150 mM), 3e (0.127 mM), 3f (0.089 mM), or DMSO as a solvent control. Analogues were used at the concentration that gave 50% inhibition of NF-kB transcriptional activity in U937 cells. After 20 hours, the proportion of apoptotic cells were visualised by acridine orange staining. Apoptotic cells were counted in five fields in duplicate for each concentration, in two independent experiments and results expressed as mean ±SEM,

| Structure (SMILES) | effect on TIMP1 promoter activity (TIMP1 promoter) | effect on IkB-α phosphorylation and degradation (IkB-α; 200 μM) | effect on IkB-α phosphorylation and degradation (IkB-α; 500 μM) | PARP cleavage in CLL cells compared with SFZ (CLL cells) | effect on regulation of IkB-α (IkB-α; 1 mM) | induction of apoptosis (PARP cleavage) in CLL cells (CLL cells; cells from 3 patients, dose response) |
| --- | --- | --- | --- | --- | --- | --- |
| COc1ccc(CNS(=O)(=O)c2ccc(/N=N/c3ccc(O)c(C(=O)O)c3)cc2)cc1 [Compound 3a, 2-hydroxy-5-[4-(4-methoxy-benzylsulfamoyl)-phenylazo]-benzoic acid] | neither SFZ or the analogues interfered with TIMP1 promoter activity | partially effective | prevented IkB-α phosphorylation and degradation | induced more PARP cleavage than SFZ |  |  |
| O=C(O)c1cc(/N=N/c2ccc(S(=O)(=O)NCc3ccc(C(F)(F)F)cc3)cc2)ccc1O [Compound 3f, 2-hydroxy-5-[4-(4-trifluoromethyl-benzylsulfamoyl)-phenylazo]-benzoic acid] | neither SFZ or the analogues interfered with TIMP1 promoter activity | partially effective | prevented IkB-α phosphorylation and degradation | induced more PARP cleavage than SFZ |  |  |
| Cc1cc(/N=N/c2ccc(S(=O)(=O)NCc3ccc(C(F)(F)F)cc3)cc2)cc(C(=O)O)c1O [Compound 3e, 2-hydroxy-3-methyl-5-[4-(4-trifluoromethyl-benzylsulfamoyl)-phenylazo]-benzoic acid] | neither SFZ or the analogues interfered with TIMP1 promoter activity | partially effective | prevented IkB-α phosphorylation and degradation |  |  |  |
| O=C(O)c1cc(/N=N/c2ccc(S(=O)(=O)Nc3ccccn3)cc2)ccc1O [SFZ, Sulfasalazine, reference compound] | neither SFZ or the analogues interfered with TIMP1 promoter activity |  |  |  | only very modest effects | induced dose dependent apoptosis |
